According to patent US20260042755A1, “GPR6 INVERSE AGONISTS” (MapLight Therapeutics, Inc., priority 2022, published 2026):

Tests used:
GPR6 = biological target: T1, GPR6 (Homo sapiens, UniProt P46095); assay: GPR6 antagonist functional cAMP assay (LANCE Ultra cAMP TR-FRET, CHO cells stably expressing GPR6); type: cell-based
T1 construct: expressed in transfected cells; host or cells: CHO cells
Outline: (§1)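 Stable CHO-GPR6 or CHO-GPR3 cells (10,000/well) in Krebs-Ringer buffer with 0.1% BSA and 150 μM Ro 20-1724 were exposed to compounds for 45 min at 37° C (0.1% DMSO). cAMP read by LANCE Ultra TR-FRET; IC50 from 4-parameter fit normalized to DMSO and reference compounds.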

GPR3 = biological target: T2, GPR3 (Homo sapiens, UniProt P46089); assay: GPR3 antagonist functional cAMP assay (LANCE Ultra cAMP TR-FRET, CHO cells stably expressing GPR3); type: cell-based
T2 construct: expressed in transfected cells; host or cells: CHO cells
Outline: as §1

[1] = CHO cells stably expressing GPR6, cAMP assay (Example 24)
[2] = CHO cells stably expressing GPR3, cAMP assay (Example 24)
[3] = CHO cells stably expressing GPR6, cAMP assay
[4] = CHO cells stably expressing GPR3, cAMP assay
[5] = procedure as described in Example 24

T1 sequence (P46095 whole entry): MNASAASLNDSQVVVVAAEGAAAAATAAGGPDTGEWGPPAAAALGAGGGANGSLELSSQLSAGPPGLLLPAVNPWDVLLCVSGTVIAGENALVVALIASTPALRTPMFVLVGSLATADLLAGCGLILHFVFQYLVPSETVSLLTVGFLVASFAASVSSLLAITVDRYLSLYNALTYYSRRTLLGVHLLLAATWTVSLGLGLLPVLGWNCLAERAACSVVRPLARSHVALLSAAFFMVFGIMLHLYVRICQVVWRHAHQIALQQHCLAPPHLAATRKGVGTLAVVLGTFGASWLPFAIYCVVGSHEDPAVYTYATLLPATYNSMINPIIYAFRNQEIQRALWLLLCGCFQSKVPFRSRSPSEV
T2 sequence (P46089 whole entry, species assumed): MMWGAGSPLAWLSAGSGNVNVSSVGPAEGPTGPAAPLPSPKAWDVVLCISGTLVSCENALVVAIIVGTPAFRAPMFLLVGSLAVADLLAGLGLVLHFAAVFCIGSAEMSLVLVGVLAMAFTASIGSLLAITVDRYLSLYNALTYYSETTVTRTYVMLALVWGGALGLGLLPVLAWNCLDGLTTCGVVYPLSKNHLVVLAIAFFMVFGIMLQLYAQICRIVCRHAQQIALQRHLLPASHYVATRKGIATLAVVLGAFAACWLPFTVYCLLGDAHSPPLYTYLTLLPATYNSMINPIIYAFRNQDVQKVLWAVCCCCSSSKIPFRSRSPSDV

| SMILES | IC50 (GPR6; procedure of Example 24) [µM] | IC50 (GPR3; procedure of Example 24) [µM] | IC50 (GPR6; [1]) [µM] | IC50 (GPR3; [2]) [µM] | other results |
| --- | --- | --- | --- | --- | --- |
| CC(=O)N1CCc2nc(N3CCC(Oc4ccc(F)cc4F)CC3)c(C3=CC(O)CCC3)nc2C1 (stereo not drawn) [Compound 234, 1-{2-[4-(2,4-difluorophenoxy)piperidin-1-yl]-3-(3-hydroxycyclohex-1-en-1-yl)-5H,6H,7H,8H-pyrido[3,4-b]pyrazin-6-yl}ethan-1-one] |  |  | 1 to 30 | 1 to 30 |  |
| CC(C)(O)[C@H](O)c1cc2nc(N3CCC(Oc4ccc(F)cc4F)CC3)c(-c3cnn(CF)c3)nc2cn1 (single isomer, unassigned) [Compound 596] |  |  |  |  | IC50 (GPR6; [3]): 0.1 to 1 µM; IC50 (GPR3; [4]): 1 to 30 µM |
| CC(=O)N1CCc2nc(N3CCC(Oc4ccc(F)cc4F)CC3)c(-c3cccc(F)n3)nc2C1 [Compound 57, 1-{2-[4-(2,4-difluorophenoxy)piperidin-1-yl]-3-(6-fluoropyridin-2-yl)-5H,6H,7H,8H-pyrido[3,4-b]pyrazin-6-yl}ethan-1-one] |  |  | 1 to 30 | 1 to 30 |  |
| Fc1ccc(OC2CC=C(c3nc4cnccc4nc3-c3ncco3)CC2)c(F)c1 (stereo not drawn) [Compound 304, 2-{3-[4-(2,4-difluorophenoxy)cyclohex-1-en-1-yl]pyrido[3,4-b]pyrazin-2-yl}-1,3-oxazole] | 1 to 30 | ≥ 30 |  |  |  |
| CC(=O)N1CCc2nc(N3CCN(Cc4ccoc4)CC3)c(-c3cnn(C)c3)nc2C1 [Compound 529, 1-(2-{4-[(3-furyl)methyl]-1-piperazinyl}-3-(1-methyl-4-pyrazolyl)-5,6,7,8-tetrahydro-1,4,6-triaza-6-naphthyl)-1-ethanone] |  |  |  |  | IC50 (GPR6; [3]): 1 to 30 µM; IC50 (GPR3; [4]): ≥ 30 µM |
| CC(=O)OC1CCCN(c2nc3c(nc2-c2cnn(C)c2)CN(Cc2ccccc2)CC3)C1 (stereo not drawn) [Compound 278, 1-[6-benzyl-3-(1-methyl-1H-pyrazol-4-yl)-5H,6H,7H,8H-pyrido[3,4-b]pyrazin-2-yl]piperidin-3-yl acetate] | 1 to 30 | 1 to 30 |  |  |  |
| CC(=O)N1CCc2nc(N3CCC(Oc4ccc(F)cc4F)CC3)c(C3CCN(S(C)(=O)=O)C3)nc2C1 (stereo not drawn) [Compound 543, 1-{2-[4-(2,4-difluorophenoxy)-1-piperidyl]-3-(1-mesyl-3-pyrrolidinyl)-5,6,7,8-tetrahydro-1,4,6-triaza-6-naphthyl}-1-ethanone] |  |  |  |  | IC50 (GPR6; [3]): 1 to 30 µM; IC50 (GPR3; [4]): 1 to 30 µM |
| COc1cncc(-c2nc3c(nc2N2CCC(Oc4ccc(F)cc4F)CC2)CCN(C(C)=O)C3)c1 [Compound 38, 1-{2-[4-(2,4-difluorophenoxy)piperidin-1-yl]-3-(5-methoxypyridin-3-yl)-5H,6H,7H,8H-pyrido[3,4-b]pyrazin-6-yl}ethan-1-one] |  |  |  |  | IC50 (GPR6; [5]): 0.1 to 1 µM; IC50 (GPR3; [5]): 1 to 30 µM |
| COc1cc(F)c(OC2CCN(c3nc4c(nc3-c3cnn(C)c3)CN(C(C)=O)CC4)CC2)cc1Cl [Compound 503, 1-{2-[4-(5-chloro-2-fluoro-4-methoxyphenoxy)-1-piperidyl]-3-(1-methyl-4-pyrazolyl)-5,6,7,8-tetrahydro-1,4,6-triaza-6-naphthyl}-1-ethanone] |  |  |  |  | IC50 (GPR6; [3]): 1 to 30 µM; IC50 (GPR3; [4]): 1 to 30 µM |
| Cc1cc2nc(N3CCC(Oc4ccc(F)cc4F)CC3)c(-c3cnn(C)c3)nc2cn1 [Compound 228, 4-(2,4-difluorophenoxy)-1-[7-methyl-3-(1-methyl-1H-pyrazol-4-yl)pyrido[3,4-b]pyrazin-2-yl]piperidine] |  |  | 0.1 to 1 | 1 to 30 |  |
| CC(=O)N1CCc2nc(N3CCC(Oc4ccc(F)cc4C#N)CC3)c(-c3cnn(C)c3)nc2C1 [Compound 497, 2-{1-[6-acetyl-3-(1-methyl-4-pyrazolyl)-5,6,7,8-tetrahydro-1,4,6-triaza-2-naphthyl]-4-piperidyloxy}-5-fluorobenzonitrile] |  |  |  |  | IC50 (GPR6; [3]): 0.1 to 1 µM; IC50 (GPR3; [4]): 1 to 30 µM |
| CC(=O)N1CCc2nc(N3CCN(Cc4ccc(=O)[nH]c4)CC3)c(-c3cnn(C)c3)nc2C1 [Compound 532, 5-({4-[6-acetyl-3-(1-methyl-4-pyrazolyl)-5,6,7,8-tetrahydro-1,4,6-triaza-2-naphthyl]-1-piperazinyl}methyl)-2(1H)-pyridinone] |  |  |  |  | IC50 (GPR6; [3]): ≥ 30 µM; IC50 (GPR3; [4]): ≥ 30 µM |
| COC(=O)N1CCc2nc(N3CCC(Oc4ccc(F)cc4F)CC3)c(-c3cnn(C4CCCCO4)c3)nc2C1 (stereo not drawn) [Compound 125, methyl 2-[4-(2,4-difluorophenoxy)piperidin-1-yl]-3-[1-(oxan-2-yl)-1H-pyrazol-4-yl]-5H,6H,7H,8H-pyrido[3,4-b]pyrazine-6-carboxylate] |  |  | 0.1 to 1 | 1 to 30 |  |
| CC(=O)N1CCc2nc(N3CCC(Oc4ccc(F)cc4C)CC3)c(-c3cnn(C)c3)nc2C1 [Compound 432, 1-{2-[4-(4-fluoro-2-methylphenoxy)piperidin-1-yl]-3-(1-methyl-1H-pyrazol-4-yl)-5H,6H,7H,8H-pyrido[3,4-b]pyrazin-6-yl}ethan-1-one] |  |  | 1 to 30 | 1 to 30 |  |
| COC[C@H]1CN(Cc2ccc(F)cc2F)CCN1c1nc2c(nc1-c1cnn(C)c1)CN(C(C)=O)CC2 (single isomer, unassigned) [Compound 249] |  |  | 1 to 30 | 1 to 30 |  |
| CC(=O)N1CCc2nc(C3=CCC(Oc4ccc(F)cc4F)CC3)c(-c3ncco3)nc2C1 (stereo not drawn) [Compound 303, 1-{2-[4-(2,4-difluorophenoxy)cyclohex-1-en-1-yl]-3-(1,3-oxazol-2-yl)-5H,6H,7H,8H-pyrido[3,4-b]pyrazin-6-yl}ethan-1-one] | ≥ 30 | ≥ 30 |  |  |  |
| CC(=O)OC1CCN(c2nc3c(nc2-c2cnn(C)c2)CN(C(C)=O)CC3)C1 (stereo not drawn) [Compound 315, 1-[6-acetyl-3-(1-methyl-1H-pyrazol-4-yl)-5H,6H,7H,8H-pyrido[3,4-b]pyrazin-2-yl]pyrrolidin-3-yl acetate] | ≥ 30 | 0.1 to 1 |  |  |  |
| COC1C=C(c2nc3c(nc2N2CCC(Oc4ccc(F)cc4F)CC2)CCN(C(C)=O)C3)CCC1 (stereo not drawn) [Compound 247, 1-{2-[4-(2,4-difluorophenoxy)piperidin-1-yl]-3-(3-methoxycyclohex-1-en-1-yl)-5H,6H,7H,8H-pyrido[3,4-b]pyrazin-6-yl}ethan-1-one] |  |  | 0.1 to 1 | 1 to 30 |  |
| CC(=O)N1CCc2nc(N3CCC(Oc4ccc(F)cc4F)CC3)c(-c3cccc(N(C)C)n3)nc2C1 [Compound 48, 1-{2-[4-(2,4-difluorophenoxy)piperidin-1-yl]-3-[6-(dimethylamino)pyridin-2-yl]-5H,6H,7H,8H-pyrido[3,4-b]pyrazin-6-yl}ethan-1-one] |  |  |  |  | IC50 (GPR6; [5]): 1 to 30 µM; IC50 (GPR3; [5]): 1 to 30 µM |
| OCCN1CCc2nc(N3CCC(Oc4ccc(F)cc4F)CC3)c(-c3cn[nH]c3)nc2C1 [Compound 141, 2-{2-[4-(2,4-difluorophenoxy)piperidin-1-yl]-3-(1H-pyrazol-4-yl)-5H,6H,7H,8H-pyrido[3,4-b]pyrazin-6-yl}ethan-1-ol] |  |  | 1 to 30 | 1 to 30 |  |
| CC(C)(C)OC(=O)N1CCCC1C(=O)N1CCc2nc(N3CCC(Oc4ccc(F)cc4F)CC3)c(-c3cnn(C4CCCCO4)c3)nc2C1 (stereo not drawn) [Compound 186, tert-butyl 2-{2-[4-(2,4-difluorophenoxy)piperidin-1-yl]-3-[1-(oxan-2-yl)-1H-pyrazol-4-yl]-5H,6H,7H,8H-pyrido[3,4-b]pyrazine-6-carbonyl}pyrrolidine-1-carboxylate] |  |  | 1 to 30 | 1 to 30 |  |
| CC(=O)N1CCc2nc(N3CCC(C(=O)N4CCOCC4)C3)c(-c3cnn(C)c3)nc2C1 (stereo not drawn) [Compound 389, 1-[3-(1-methyl-1H-pyrazol-4-yl)-2-[3-(morpholine-4-carbonyl)pyrrolidin-1-yl]-5H,6H,7H,8H-pyrido[3,4-b]pyrazin-6-yl]ethan-1-one] |  |  | ≥ 30 | 1 to 30 |  |

Second part, led by results:

| IC50 (GPR6; procedure of Example 24) [µM] | IC50 (GPR3; procedure of Example 24) [µM] | IC50 (GPR6; [1]) [µM] | IC50 (GPR3; [2]) [µM] | SMILES | other results |
| --- | --- | --- | --- | --- | --- |
| 1 to 30 | 1 to 30 |  |  | Cn1cc(-c2nc3cnc([C@H]4C[C@@H]4C(=O)O)cc3nc2N2CCC(Oc3ccc(F)cc3F)CC2)cn1 (single isomer, unassigned) [Compound 737] |  |
| 0.1 to 1 | 1 to 30 |  |  | CC(C)(O)[C@](C)(O)c1cc2nc(N3CCN(Cc4ccccc4F)CC3)c(-c3cnn(C(F)F)c3)nc2cn1 (single isomer, unassigned) [Compound 669] |  |
| 0.1 to 1 | 1 to 30 |  |  | COCC(O)c1cc2nc(N3CCN(Cc4ccc(F)cc4F)CC3)c(-c3cnn(C(F)F)c3)nc2cn1 (stereo not drawn) [Compound 687, 1-{3-[1-(difluoromethyl)-4-pyrazolyl]-2-{4-[(2,4-difluorophenyl)methyl]-1-piperazinyl}-1,4,6-triaza-7-naphthyl}-2-methoxy-1-ethanol] |  |
| 0.1 to 1 | 1 to 30 |  |  | CC(C)(O)[C@](C)(O)c1cc2nc(N3CCC(Oc4ccc(F)cc4F)CC3)c(-c3cnn(C4CC4)c3)nc2cn1 (single isomer, unassigned) [Compound 664] |  |
| 0.1 to 1 | 1 to 30 |  |  | CCn1cc(-c2nc3cnc([C@](C)(O)C(C)(C)O)cc3nc2N2CCC(Oc3ccc(F)cc3F)CC2)cn1 (single isomer, unassigned) [Compound 735] |  |
| < 0.1 | 1 to 30 |  |  | COCC(C)(O)c1cc2nc(-c3cnn(C)c3)c(N3CCC(Oc4ccc(F)cc4F)CC3)nc2cn1 (stereo not drawn) [Compound 652, 2-{3-[4-(2,4-difluorophenoxy)-1-piperidyl]-2-(1-methyl-4-pyrazolyl)-1,4,6-triaza-7-naphthyl}-1-methoxy-2-propanol] |  |
| 0.1 to 1 | 1 to 30 |  |  | CC(C)(O)[C@@](C)(O)c1cc2nc(N3CCN(Cc4ccccc4F)CC3)c(-c3cnn(CF)c3)nc2cn1 (single isomer, unassigned) [Compound 676] |  |
| 0.1 to 1 | 1 to 30 |  |  | CC(=O)N1CCc2nc(N3CCC(C(F)(F)c4ccc(F)cc4F)CC3)c(-c3cnn(C)c3)nc2C1 [Compound 698, 1-(2-(4-((2,4-difluorophenyl)difluoromethyl)piperidin-1-yl)-3-(1-methyl-1H-pyrazol-4-yl)-7,8-dihydropyrido[3,4-b]pyrazin-6(5H)-yl)ethan-1-one] |  |
